Data as given in patent US12576107B2, “Methods of treating chronic inflammatory diseases” (METIMEDI PHARMACEUTICALS CO., LTD., priority 2018, dated 2026).

Legend:
hypoxia-mediated factors = experiment: Brain CID in vitro experiment, Western blot in SK-N-SH cells; format: cell-based; details: 2.5 mM; SK-N-SH cells (human neuroblastoma); normoxia and hypoxia
Protocol: (§1) Human Brain cell line, SK-N-SH, was purchased from American Type Culture Collection (Manassas, VA, USA). The SK-N-SH cells were maintained in RPMI1640 containing 10% fetal bovine serum (Life Technologies, Gaithersburg, MD, USA), 100 IU/ml penicillin, and 100 μg/ml streptomycin (Welgene, Daegu, South Korea).
To prepare whole cell lysate, cells were lysed with lysis buffer (1% NP-40, 0.25% sodium deoxycholate, 150 mM NaCl, 1 mM EDTA, 1% Triton X-100, 50 mM Tris-HCl (pH 7.4), 10% Glycerol) with protease inhibitor cocktail (Roche, Basel, Switzerland) and phosphatase inhibitors (NA3VO4 1 mM, NaF 100 mM). Then, protein concentration was measured using the Bicinchoninic acid (BCA) assay kit (Thermo Scientific, Waltham, MA). Whole cell or nuclear lysates were transferred onto polyvinylidene fluoride membranes (Merck Millipore, Billerica, MA, USA). After blocking in 5% non-fat milk (Bio-Rad, Hercules, CA, USA) for 1 h, the membranes were incubated overnight at 4° C. with primary antibody diluted in TBST containing 100 mM Tris-HCl (pH 7.5), 1.5 M NaCl, and 0.5% Tween-20 obtained from Sigma-Aldrich, to which 5% BSA and 0.1% sodium azide (Sigma-Aldrich) had been added. Specific primary antibodies to HIF-1α (1:1000), HIF-2α (1:1000), LDH-A (1:1000), LDH-B (1:1000), TLR-4 (1:1000), NF-κB (1:1000), VEGF (1:1000), α-tubulin (1:1000), Actin (1:1000), and GAPDH (1:5000). […]

toll like receptor 4 = experiment: Immunocytochemistry of toll like receptor 4 in ARPE-19 cells; format: cell-based, Human; details: 2.5 mM, hypoxia
Protocol: as §1, with “retinal pigment epithelium” for “Brain”, “ARPE-19,” for “SK-N-SH,”, “ARPE-19” for “SK-N-SH”
ARPE-19 and SK-N-SH cells were fixed on bio-coated coverslips (BD bioscience, San Jose, CA, USA) by 4% PFA for 20 min and then incubated with the primary antibodies for 15 h. The primary antibodies were as follows: HIF-1a (1:300, BD Biosciences, San Jose, CA, USA); LDH-A (1:300, Santa Cruz Biotechnology, Santa Cruz, CA, USA); LDH-B (1:300, Santa Cruz Biotechnology, Santa Cruz, CA, USA); NF-κB (1:300, Santa Cruz Biotechnology, Santa Cruz, CA, USA); TLR-4 (1:300, Santa Cruz Biotechnology, Santa Cruz, CA, USA); apoE (1:200, Santa Cruz Biotechnology, Santa Cruz, CA, USA). After PBS wash, the cells were incubated with anti-mouse secondary biotinylated antibody (1:2000, Vector Laboratorie, Burlingame, CA, USA) and visualized with streptavidin conjugated to Fluorescein (Vector Laboratorie, Burlingame, CA, USA). […] Confocal fluorescence images were obtained with confocal laser scanning microscopy (LSCM, Nikon A1+, Tokyo, Japan) under a 60× oil immersion lens.

[1] = tested on: LPS-injected spinal cord of rats; experiment: Multiple sclerosis / spinal cord injury model, intraspinal injection of LPS; format: in vivo, Sprague-Dawley (SD) rats; details: 2 mg/kg daily subcutaneous 21 days
Protocol: (§2) Animals. […] Eight-week old male Sprague-Dawley (SD) rats were obtained from Samtako Co. (Osan, Gyeonggi-do, Republic of Korea) and bred under specific-pathogen-free (SPF) conditions. All animals were maintained in a 12-hour light/dark cycle at 22-25° C. with free access to food and water.
Dissolve 1 mg of LPS powder in 1 ml of saline. Keep the tubes on ice if LPS is going to be used fresh. For long storage, use screw cap vials are preferred. The aliquots were stored at deep freezer (−20° C.). Calcium lactate was purchased from Sigma Aldrich (St. Louis, USA).
Intraspinal injection of LPS. The animals were placed in a small acrylic cage that was coupled with an anesthesia machine that allowed them to breathe freely under gaseous anesthesia (2% isoflurane, Spartanburg, SC, USA). After full anesthesia of an animal was achieved, it was positioned on an operating table (while maintaining the gaseous anesthesia). For intraspinal injection of LPS, the laminectomy site of rats was exposed. Two small holes, 1 mm apart, were made in the dura over the left dorsal column. A volume of 1 μl of LPS solution was carefully drawn up into a sterile Hamilton syringe, and the LPS solution was slowly injected into the spinal cord. The syringe maintained in place for an additional 2 min to prevent back-flux from the injection site. Then, the injection site was closed by surgical clips.
Immunohistochemistry. […]

[2] = tested on: LPS-induced periodontal disease rats; experiment: Periodontal disease model, intragingival injection of LPS; format: in vivo, Sprague-Dawley (SD) rats; details: 2 mg/kg daily subcutaneous 21 days
Protocol: as §2
Dissolve 1 mg of LPS powder in 100 μl of saline. Keep the tubes on ice if LPS is going to be used fresh. For long storage, use screw cap vials are preferred. The aliquots were stored in a deep freezer (−20° C.). Calcium lactate was purchased from Sigma Aldrich (St. Louis, MO, USA).
Animal model for periodontal disease. Periodontal disease was induced by intragingival injection of LPS (1 mg/100 μl) in sterile saline. A fine hypodermic needle was inserted at the mesiolateral aspect of the first right mandibular molar and the tip moved distally so that the injection was made at the interdental papilla between the first and second molars. The injection was slowly made, and the needle held in place for 10 seconds post injection to ensure that the LPS was not lost through the needle track.
Histological analysis. […] Mount with mounting medium.

CC(O)C(=O)[O-].CC(O)C(=O)[O-].[Ca+2] (stereo not drawn) [calcium lactate]
hypoxia-mediated factors, Western blot (hypoxia-mediated factors): decreased | inflammatory factor (toll like receptor 4), immunocytochemistry (toll like receptor 4): decreased | demyelinated spinal cord [1]: Recovery | microglia infiltration (Iba-1) in spinal cord [1]: reduction | ligaments and gingiva around the root of tooth (Masson's trichrome) [2]: recovered | morphology of the upper gum (Masson's trichrome) [2]: recovered
